# Literature values in PMC9321963 (Birth Defects Research, 2022).
# Tests used:
# pregnant rats = conditions: ref Mey, Babiuk, Clugston, Zhang, & Greer, [2003]; cited from earlier work
# rats = conditions: ref Food and Drug Administration, Duvelisib Label, [2018]; cited from earlier work
# rabbits = conditions: ref Food and Drug Administration, Duvelisib Label, [2018]; cited from earlier work
SMILES,anomalies in offspring after administration to pregnant rats (pregnant rats),developmental toxicity (rats),developmental toxicity (rabbits)
O=C(O)c1ccc(-c2ccccc2)cc1 [4‐biphenyl carboxylic acid],"congenital anomalies in the offspring, including CDH defects",,
C[C@H](Nc1ncnc2[nH]cnc12)c1cc2cccc(Cl)c2c(=O)n1-c1ccccc1 [Duvelisib],,developmental toxicant causing fetal losses and malformations,developmental toxicant causing fetal losses and malformations
"O=C(NCCCCCCCCNC(=O)C(Cl)Cl)C(Cl)Cl [bisdiamine, N,N‐octamethylenebis (dichloroacetamide)]","congenital anomalies in the offspring, including CDH defects",,
"O=[N+]([O-])c1ccc(Oc2ccc(Cl)cc2Cl)cc1 [nitrofen, 2,4‐dichlorophenyl‐p‐nitrophenyl ether]","congenital anomalies in the offspring, including CDH defects",,
